The target of the test is T1, sGC α1/β1 heterodimer (Homo sapiens, UniProt Q02108+Q02153).
T1 construct: expressed in transfected cells
T1 sequence (Q02108 1-690): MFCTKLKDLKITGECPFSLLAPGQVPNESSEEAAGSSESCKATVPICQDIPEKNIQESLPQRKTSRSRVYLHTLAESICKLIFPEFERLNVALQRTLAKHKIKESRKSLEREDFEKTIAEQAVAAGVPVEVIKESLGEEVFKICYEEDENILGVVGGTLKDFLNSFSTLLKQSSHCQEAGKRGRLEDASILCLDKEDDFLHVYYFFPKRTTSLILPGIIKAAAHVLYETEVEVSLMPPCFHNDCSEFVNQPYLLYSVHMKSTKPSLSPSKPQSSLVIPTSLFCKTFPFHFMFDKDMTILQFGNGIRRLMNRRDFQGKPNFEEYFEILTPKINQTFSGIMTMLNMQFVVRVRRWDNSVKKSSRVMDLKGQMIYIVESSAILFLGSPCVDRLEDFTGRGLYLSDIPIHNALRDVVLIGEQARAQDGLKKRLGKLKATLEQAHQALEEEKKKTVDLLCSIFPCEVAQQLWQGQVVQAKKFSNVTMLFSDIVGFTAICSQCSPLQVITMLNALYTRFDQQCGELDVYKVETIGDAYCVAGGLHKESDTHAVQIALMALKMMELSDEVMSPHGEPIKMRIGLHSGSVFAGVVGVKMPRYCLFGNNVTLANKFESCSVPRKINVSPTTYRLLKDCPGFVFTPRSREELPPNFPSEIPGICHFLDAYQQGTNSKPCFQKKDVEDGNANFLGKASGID
T1 sequence (Q02153 1-619): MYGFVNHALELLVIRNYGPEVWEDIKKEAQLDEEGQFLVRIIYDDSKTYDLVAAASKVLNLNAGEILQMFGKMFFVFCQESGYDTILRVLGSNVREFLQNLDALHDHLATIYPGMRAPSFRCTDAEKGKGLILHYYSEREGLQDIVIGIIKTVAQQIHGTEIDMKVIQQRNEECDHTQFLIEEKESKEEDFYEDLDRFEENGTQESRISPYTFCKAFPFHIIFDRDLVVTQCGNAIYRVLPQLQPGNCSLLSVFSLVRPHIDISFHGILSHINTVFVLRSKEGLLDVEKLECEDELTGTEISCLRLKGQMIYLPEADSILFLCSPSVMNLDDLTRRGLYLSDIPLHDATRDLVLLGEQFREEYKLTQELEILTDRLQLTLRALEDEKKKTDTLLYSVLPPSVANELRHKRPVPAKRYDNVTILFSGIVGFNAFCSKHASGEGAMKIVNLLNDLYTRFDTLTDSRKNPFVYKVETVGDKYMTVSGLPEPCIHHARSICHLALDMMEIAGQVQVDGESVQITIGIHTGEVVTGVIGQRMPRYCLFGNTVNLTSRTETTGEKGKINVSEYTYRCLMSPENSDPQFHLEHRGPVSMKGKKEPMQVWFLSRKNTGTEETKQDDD
As to the kind of experiment: Cell-Based sGC Functional Assay (CASA Assay), cGMP generation in CHO-K1/sGC cells. Conditions: maximum cGMP production of Compound A set to 100% activation, read-out: % Act. (percent activation relative to Compound A). The source says: sGC is a heme-containing enzyme that converts GTP to secondary messenger cGMP. Increases in cGMP levels affect several physiological processes including vasorelaxation through multiple downstream pathways. […] Heme-dependent activators (HDAs) preferentially activate sGC containing a ferrous heme group. To determine the effect of sGC activators on enzyme activity, the CASA assay was developed to monitor the generation of cGMP in a cell line that stably expresses the heterodimeric sGC protein.
A CHO-K1 cell line stably expressing the sGC α1/β1 heterodimer was generated using a standard transfection protocol. CHO-K1 cells were transfected with plasmids pIREShyghsGCα1 and pIRESneo-hsGCβ1 simultaneously using FUGENE reagent. Clones that stably express both subunits were selected with hygromycin and neomycin for ˜2 weeks. Clone #7 was chosen for the assay and was designated CHO-K1/sGC. CHO-K1/sGC cells were maintained in F-K12 medium containing 10% heat-inactivated Fetal Bovine Serum (FBS), 100 μg/mL penicillin/streptomycin, 0.5 mg/mL hygromycin and 0.25 mg/mL G418. The cells were then cryopreserved in LN2. On the day of the assay, cells thawed and resuspended in EBSS Assay Buffer (Sigma, E3024) supplemented with 5 mM MgCl2, 10 mM HEPES (4-(2-hydroxyethyl)piperazine-1-ethanesulfonic acid) and 0.05% BSA (bovine serum albumin) (EAB) and cell density was then adjusted to 4×10^5/mL with EAB. IBMX (3-isobutyl-1-methylxanthin, 0.5 mM) was added to inhibit degradation of cGMP. Compounds were diluted from DMSO stock solutions and added to the assay at a final DMSO concentration of 2.5%. Cells were incubated with compounds in the presence and absence of 1 μM of Diethylenetriamine/nitric oxide adduct (DETA-NO; Sigma, 17018) for 1 hr at 37° C. At the end of the incubation period, the reaction was terminated and the cells were lysed with the detection reagents from Cisbio Kits. The level of intracellular cGMP was determined using an HTRF-based assay kit (CisBio, 62GM2PEC), which detects the displacement of a fluorescence labeled cGMP from its specific antibody. The cGMP produced by test compounds was directly compared to the maximum cGMP production (this value was set to equal 100% activation.) of the published sGC-HDA Compound A:
[drawing 298] (Example 1 in WO 2010/065275, published Jun. 10, 2010). The test compounds' activities were then expressed as a percentage of Compound A, the standard in every experiment. This percent activation was calculated either in the presence or absence of DETA-NO which was then plotted. IP and maximum fold induction was derived using ADA analysis software for 4P fit.
For the compound `CC1(c2ccc(F)cn2)C(=O)Nc2nc(-c3cn4ncnc4c(CCCC(F)(F)F)n3)nc(N)c21` (centres unmarked) [Example 22B, 4-amino-5-(5-fluoropyridin-2-yl)-5-methyl-2-(8-(4,4,4-trifluorobutyl)-[1,2,4]triazolo[1,5-a]pyrazin-6-yl)-5H-pyrrolo[2,3-d]pyrimidin-6(7H)-one], the Emax turned out to be 130%.

On to `C[C@@]1(c2ccc(F)cc2)C(=O)Nc2nc(-c3cn4ncnc4c(CCCC(F)(F)F)n3)nc(N)c21` [Example 23A, (S)-4-amino-5-(4-fluorophenyl)-5-methyl-2-(8-(4,4,4-trifluorobutyl)-[1,2,4]triazolo[1,5-a]pyrazin-6-yl)-5,7-dihydro-6H-pyrrolo[2,3-d]pyrimidin-6-one], for which the Emax is 163%.

As for `CC1(c2ccc(C(F)(F)F)cc2)C(=O)Nc2nc(-c3cn4ncnc4c(CCCC(F)(F)F)n3)nc(N)c21` (centres unmarked) [Example 24B, 4-amino-5-methyl-2-(8-(4,4,4-trifluorobutyl)-[1,2,4]triazolo[1,5-a]pyrazin-6-yl)-5-(4-(trifluoromethyl)phenyl)-5H-pyrrolo[2,3-d]pyrimidin-6(7H)-one], the Emax was 133%.

In the case of `CC1(c2ccc(Cl)cn2)C(=O)Nc2nc(-c3cn4ncnc4c(CCCC(F)(F)F)n3)nc(N)c21` (centres unmarked) [Example 26A, 4-amino-5-(5-chloropyridin-2-yl)-5-methyl-2-(8-(4,4,4-trifluorobutyl)-[1,2,4]triazolo[1,5-a]pyrazin-6-yl)-5H-pyrrolo[2,3-d]pyrimidin-6(7H)-one], the Emax turned out to be 162%.

With `Nc1nc(-c2cn3ncnc3c(CCCC(F)(F)F)n2)nc2c1C(c1ccc(Cl)cn1)(C1CC1)C(=O)N2` (centres unmarked) [Example 27A, 4-amino-5-(5-chloropyridin-2-yl)-5-cyclopropyl-2-(8-(4,4,4-trifluorobutyl)-[1,2,4]triazolo[1,5-a]pyrazin-6-yl)-5H-pyrrolo[2,3-d]pyrimidin-6(7H)-one], the Emax stood at 178%.

On to `CC1(c2ccc(Cl)c(F)c2)C(=O)Nc2nc(-c3cn4ncnc4c(CCCC(F)(F)F)n3)nc(N)c21` (centres unmarked) [Example 28B, 4-amino-5-(4-chloro-3-fluorophenyl)-5-methyl-2-(8-(4,4,4-trifluorobutyl)-[1,2,4]triazolo[1,5-a]pyrazin-6-yl)-5H-pyrrolo[2,3-d]pyrimidin-6(7H)-one], for which the Emax amounted to 171%.

As for `CC1(c2ccc(Cl)cc2)C(=O)Nc2nc(-c3cn4ncnc4c(CCCC(F)(F)F)n3)nc(N)c21` (centres unmarked) [Example 29A, 4-amino-5-(4-chlorophenyl)-5-methyl-2-(8-(4,4,4-trifluorobutyl)-[1,2,4]triazolo[1,5-a]pyrazin-6-yl)-5H-pyrrolo[2,3-d]pyrimidin-6(7H)-one], the Emax is 101%.

Regarding `Nc1nc(-c2cn3ncnc3c(CCCC(F)(F)F)n2)nc2c1C(c1ccc(F)cc1)(C1CC1)C(=O)N2` (centres unmarked) [Example 30B, 4-amino-5-cyclopropyl-5-(4-fluorophenyl)-2-(8-(4,4,4-trifluorobutyl)-[1,2,4]triazolo[1,5-a]pyrazin-6-yl)-5H-pyrrolo[2,3-d]pyrimidin-6(7H)-one], the Emax is 117%.

Consider `Nc1nc(-c2cn3ncnc3c(CCCC(F)(F)F)n2)nc2c1C(c1ccc(Cl)cc1)(C1CC1)C(=O)N2` (centres unmarked) [Example 31B, 4-amino-5-(4-chlorophenyl)-5-cyclopropyl-2-(8-(4,4,4-trifluorobutyl)-[1,2,4]triazolo[1,5-a]pyrazin-6-yl)-5H-pyrrolo[2,3-d]pyrimidin-6(7H)-one], for which the Emax turned out to be 104%.

Consider `Nc1nc(-c2cn3ncnc3c(CCCC(F)(F)F)n2)nc2c1C(c1ccc(F)c(F)c1)(C1CC1)C(=O)N2` (centres unmarked) [Example 32A, 4-amino-5-cyclopropyl-5-(3,4-difluorophenyl)-2-(8-(4,4,4-trifluorobutyl)-[1,2,4]triazolo[1,5-a]pyrazin-6-yl)-5H-pyrrolo[2,3-d]pyrimidin-6(7H)-one], for which the Emax worked out at 144%.

Consider `Nc1nc(-c2cn3ncnc3c(CCCC(F)(F)F)n2)nc2c1C(c1ccc(C(F)(F)F)cc1)(C1CC1)C(=O)N2` (centres unmarked) [Example 35A, 4-amino-5-cyclopropyl-2-(8-(4,4,4-trifluorobutyl)-[1,2,4]triazolo[1,5-a]pyrazin-6-yl)-5-(4-(trifluoromethyl)phenyl)-5H-pyrrolo[2,3-d]pyrimidin-6(7H)-one], for which the Emax was found to be 164%.

With `CC1(c2ccccc2)C(=O)Nc2nc(-c3cn4ncnc4c(CCCC(F)(F)F)n3)nc(N)c21` (centres unmarked) [Example 37B, 4-amino-5-methyl-5-phenyl-2-(8-(4,4,4-trifluorobutyl)-[1,2,4]triazolo[1,5-a]pyrazin-6-yl)-5H-pyrrolo[2,3-d]pyrimidin-6(7H)-one], the Emax turned out to be 112%.

Consider `CC1(c2ccc(F)c(F)c2)C(=O)Nc2nc(-c3cn4ncnc4c(CCCC(F)(F)F)n3)nc(N)c21` (centres unmarked) [Example 38B, 4-amino-5-(3,4-difluorophenyl)-5-methyl-2-(8-(4,4,4-trifluorobutyl)-[1,2,4]triazolo[1,5-a]pyrazin-6-yl)-5H-pyrrolo[2,3-d]pyrimidin-6(7H)-one], for which the Emax came to 120%.

Consider `COc1ccc(C2(C)C(=O)Nc3nc(-c4cn5ncnc5c(CCCC(F)(F)F)n4)nc(N)c32)nc1` (centres unmarked) [Example 40A, 4-amino-5-(5-methoxypyridin-2-yl)-5-methyl-2-(8-(4,4,4-trifluorobutyl)-[1,2,4]triazolo[1,5-a]pyrazin-6-yl)-5H-pyrrolo[2,3-d]pyrimidin-6(7H)-one], for which the Emax came to 130%.

Consider `CC1(c2ccc(F)c(Cl)c2)C(=O)Nc2nc(-c3cn4ncnc4c(CCCC(F)(F)F)n3)nc(N)c21` (centres unmarked) [Example 42B, 4-amino-5-(3-chloro-4-fluorophenyl)-5-methyl-2-(8-(4,4,4-trifluorobutyl)-[1,2,4]triazolo[1,5-a]pyrazin-6-yl)-5H-pyrrolo[2,3-d]pyrimidin-6(7H)-one], for which the Emax came out at 82%.

With `CC1(c2ccc(C(F)F)cn2)C(=O)Nc2nc(-c3cn4ncnc4c(CCCC(F)(F)F)n3)nc(N)c21` (centres unmarked) [Example 43B, 4-amino-5-(5-(difluoromethyl)pyridin-2-yl)-5-methyl-2-(8-(4,4,4-trifluorobutyl)-[1,2,4]triazolo[1,5-a]pyrazin-6-yl)-5H-pyrrolo[2,3-d]pyrimidin-6(7H)-one], the Emax is 69%.

Take `Cc1ccc(C2(C)C(=O)Nc3nc(-c4cn5ncnc5c(CCCC(F)(F)F)n4)nc(N)c32)nc1` (centres unmarked) [Example 46B, 4-amino-5-methyl-5-(5-methylpyridin-2-yl)-2-(8-(4,4,4-trifluorobutyl)-[1,2,4]triazolo[1,5-a]pyrazin-6-yl)-5H-pyrrolo[2,3-d]pyrimidin-6(7H)-one]: the Emax is 67%.

The record behind these values is US10925876B2, “Methods for using triazolo-pyrazinyl soluble guanylate cyclase activators in fibrotic disorders” (Merck Sharp & Dohme Corp., priority 2016, dated 2021).
